From PubChem BioAssay (NCI) come the findings set out here.

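Briefly, cells in 96-well plates were exposed to five compound concentrations for 48 h, and endpoints were estimated by linear interpolation. Here, GI50 denotes the concentration required for 50% inhibition of growth. TGI: total growth inhibition.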

Test in all cases: NCI-60 cell line screen, 48 h
Assay [1] concerns CCRF-CEM leukemia.
Assay [2] deals with IGROV1 ovarian.
Assay [3] deals with OVCAR-8 ovarian.
For assay [4], the system named is 786-0 renal.
The test system of assay [5] is RXF 393 renal.
Assay [6] concerns SNB-75 CNS.
The test system of assay [7] is OVCAR-5 ovarian.
The test system of assay [8] is HOP-62 NSCLC.
For assay [9], the system named is SK-MEL-2 melanoma.
The subject of assay [10] is NCI-H522 lung.

For the compound `O=C1NC2CCC(C2)C1c1ccccc1` (stereo unspecified), the TGI in assay [1], in assay [2], in assay [3], in assay [4], in assay [5] and in assay [6] was > 100 µM in each case. In [7], the TGI was > 100 µM.
In the case of `O=C(Nc1ccc(F)cc1)C(=O)C(C1OC(=O)c2ccccc21)[N+](=O)[O-]` (stereo unspecified), the TGI in assay [1], in [2], in assay [3], in [4], in assay [8] and in assay [9] was > 100 µM throughout. The TGI in assay [5], in assay [6] and in [7] was > 100 µM in each case.
In the case of `CN1CCCCCC(=N\O)/C(=N/O)CCCCC1`, the TGI in assay [1], in assay [2], in assay [3], in assay [10], in assay [4] and in assay [8] was > 100 µM in each case. The TGI in assay [5], in assay [6] and in assay [7] was > 100 µM in each case.
Consider `O=c1[nH]ccc2nc(N3CCC(O)CC3)nc(Nc3cccc(C(F)(F)F)c3)c12`, for which the GI50 in [1] was 2100 nM; in [3] it was 3.29 µM; in assay [10], 2360 nM; in [4] it was 2.06 µM; in assay [8], 4.4 µM; in assay [5], 1450 nM. The GI50 in [6] is 5.76 µM; in assay [7], 28.3 µM. The TGI in [1] is > 100 µM; in assay [3], 40.6 µM; in assay [10], 10.1 µM; in assay [4], > 100 µM; in [8] it was 18.8 µM; in [5], 23.2 µM. The TGI in assay [6] was 82.1 µM; in [7] it was 94.3 µM.
On to `COC(=O)C(=O)C(C#N)c1ccc(CC#N)cc1` (stereo unspecified), for which the TGI in assay [1], in [2], in assay [10], in assay [4], in [9] and in [6] was > 100 µM each time.
On to `Cc1cc(C)nc(NS(=O)(=O)c2ccc(Nc3c4ccc(Cl)cc4nc4c(C(=O)Nc5ccc(S(=O)(=O)N=C(N)N)cc5)cccc34)cc2)n1`, for which the TGI in assay [1], in assay [3], in [10], in assay [4], in assay [8] and in assay [5] was > 100 µM throughout. The TGI in assay [6] and in assay [7] was > 100 µM each time.
In the case of `Cc1ccc(NC(=O)CCC/C(CC(=O)c2ccc(Br)cc2)=N/NC(=O)CC#N)cc1`, the TGI in assay [1], in assay [2], in assay [3], in assay [4], in assay [8] and in assay [9] was > 100 µM each time. Further, the TGI in [5], in assay [6] and in [7] was > 100 µM in each case.
Regarding `CC[O-].CC[O-].O=C1C(c2ccccc2)=C([O-])c2ccccc21.O=C1C(c2ccccc2)=C([O-])c2ccccc21.[Ti+4]`, the GI50 in assay [2] was > 100 µM; in assay [3], > 100 µM; in [10] it was > 100000 nM; in assay [4] it was > 100 µM; in assay [8], > 100 µM; in [9] it was > 100 µM. For the same compound, the GI50 in assay [6] and in assay [7] was > 100 µM in each case. Further, the TGI in assay [2], in assay [3], in [10], in [4], in assay [8] and in assay [9] was > 100 µM in each case. Also, the TGI in [6] and in assay [7] was > 100 µM in each case.
With `Cc1cccc(Cl)c1NC(=O)/C=C/c1ccccc1`, the TGI in assay [1], in [2], in [3], in assay [10], in assay [4] and in assay [8] was > 100 µM throughout. For the same compound, the TGI in [9] was > 100 µM; in assay [6] it was 87.1 µM; in [7], > 100 µM.
Consider `C=CCN(CC=C)C(=O)c1cc(C)nc2c1c(=O)n(-c1ccccc1)c(=O)n2CC(O)CN1CCN(c2ncccn2)CC1` (stereo unspecified), for which the GI50 in assay [1] is > 100000 nM; in assay [2] it was > 100 µM; in [10], > 100000 nM; in assay [4], > 100 µM; in assay [8], 21.1 µM; in assay [9], > 100 µM. In addition, the GI50 in assay [6] was 29 µM; in assay [7], > 100 µM. For the same compound, the TGI in assay [1], in [2], in assay [10], in assay [4], in assay [8] and in assay [9] was > 100 µM in each case. Moreover, the TGI in assay [6] and in assay [7] was > 100 µM in each case.
As for `O=C([O][Hg][CH2]C1COCC([CH2][Hg][O]C(=O)c2ccccc2)O1)c1ccccc1` (stereo unspecified), the GI50 was 804 nM in [1]; 2.1 µM in assay [2]; 2.03 µM in [3]; 16.8 µM in assay [4]; 15.3 µM in [8]; 13.2 µM in assay [9]. In addition, the GI50 is 1990 nM in assay [5], 15.6 µM in assay [6] and 19.2 µM in assay [7]. The TGI in [1] is 5.08 µM; in [2] it was 4.17 µM; in [3], 4.62 µM; in assay [4], 30.5 µM; in assay [8], 31.1 µM; in [9] it was 29.6 µM. In addition, the TGI in assay [5] was determined as 3.56 µM; in assay [6], 29.3 µM; in assay [7], 35.9 µM.
Regarding `CCc1nc(N)nc(C(=O)NCCNC(=O)c2nc(N)nc(CC)c2C)c1C`, the TGI in [2], in assay [3], in [4], in [8], in assay [9] and in assay [5] was > 100 µM each time. The TGI in [6] and in [7] was > 100 µM throughout.
Turning to `O=C([CH-]C(=O)c1ccccc1)c1ccccc1.O=C([CH-]C(=O)c1ccccc1)c1ccccc1.O=C([CH-]C(=O)c1ccccc1)c1ccccc1.[OH3+].[Y+3]`, the GI50 in assay [2] was 13.6 µM; in assay [3], 3.5 µM; in [10], 2580 nM; in [4] it was 4.72 µM; in [8] it was 4.5 µM; in assay [9], 4.24 µM. Besides, the GI50 in [6] is 3.25 µM; in assay [7], 16.9 µM. For the same compound, the TGI was 62.4 µM in assay [2]; 21.8 µM in [3]; 11.1 µM in [10]; 21.8 µM in [4]; 22.5 µM in assay [8]; 17.9 µM in [9]. In addition, the figures for the TGI in assay [6] and in assay [7] were 8.1 µM and 66.1 µM, respectively.
Regarding `COC(=O)C12CC3CC(C1)CC(C(=O)OC)(C3)C2`, the TGI in assay [1], in [2], in assay [3], in assay [10], in [4] and in assay [8] was > 100 µM throughout. Also, the TGI in assay [6] and in [7] was > 100 µM each time.
Take `Cc1nc2cc(N)c(F)cc2[nH]1`: the TGI in assay [1], in assay [2], in assay [3], in [10], in assay [4] and in assay [8] was > 100 µM each time. The TGI in assay [9], in assay [5] and in assay [7] was > 100 µM throughout.
For the compound `O=C1c2ccccc2C2(O)NC(=S)N(c3ccccc3)C12O` (stereo unspecified), the TGI in assay [1], in assay [2], in assay [3], in assay [10], in [4] and in assay [9] was > 100 µM each time. For the same compound, the TGI in assay [6] and in [7] was > 100 µM in each case.
`Cc1ccc(/C=C/C(=O)c2sc(-c3cccnc3)nc2C)cc1`: the TGI in assay [1], in [2], in [3], in [10], in assay [4] and in [8] was > 100 µM in each case. The TGI in assay [9], in assay [5] and in assay [7] was > 100 µM throughout.
As for `Cc1ccc(NC(=O)CC(=O)n2nc(-c3ccccc3)c(N=Nc3ccccc3Cl)c2-c2ccccc2)cc1`, the TGI in assay [1], in [2], in assay [3], in [10], in assay [4] and in [8] was > 100 µM throughout. The TGI was > 100 µM in [9], 42.1 µM in assay [6] and > 100 µM in assay [7]. Also, the GI50 in [2] and in assay [9] was > 100 µM throughout.
For `O=C(O)CC12C3C4C5C3C1C5C42` (stereo unspecified), the TGI in [1], in [2], in assay [3], in assay [10], in assay [4] and in assay [8] was > 100 µM each time. The TGI in assay [9], in assay [6] and in assay [7] was > 100 µM each time.
